4 molecules from patent US8415340B2, “Triazine kinase inhibitors” (Bristol-Myers Squibb Company, priority 2007, dated 2013) can be followed below.

This assay concerns IGF1R-Sal tumors. The assay can be described thus: IGF-1R Sal Tumor Model. It is filed as in vivo. The conditions noted are these: orally, qd × 4 days, nude mice bearing IGF1R-Sal tumors. As for the experimental part:
P. IGF-1R Sal Tumor Model
A salivary gland adenocarcinoma that developed spontaneously in a transgenic mouse (MCI-19) was excised and cut into fragments of about 20 mg. Tumor fragments were implanted s.c. into the ventral thoracic region of a group of six female, athymic BALB/c nu/nu mice (Harley Sprague-Dawley, Indianapolis, Ind.), using a 13-gauge trocar. Once established, the salivary gland-derived tumor line was designated IGF1R-Sal and was propagated as a tumor xenograft in nude mice. Tumors were passaged every 2 weeks, at which time the tumor reached f500 to 1,000 mm3 in size. For treatment studies, nude micebearing IGF1R-Sal tumors of about 100 mm3 in size were sorted into groups of five for treatment with vehicle (80% polyethylene glycol 400 in water) alone or the test article. Compounds were administered either on a bid schedule (oral doses 8 hours apart) or on a once a day schedule orally (qd) for 4 consecutive days. Tumors were measured at the start and end of treatment. Activity was measured as % tumor growth inhibition (% TGI). The % TGI was determined using the following formula (Ct−Tt)/(Ct−Co) where Ct is defined as the median tumor size of the control group at the end of treatment, Co is defined as the median tumor size of the control group at the start of treatment, and Tt is defined as the median tumor size of the treated group at the end of treatment.

On to `O=C(Nc1cnccn1)[C@@H]1C[C@@H](F)CN1c1nc(Nc2cc(C3CC3)n[nH]2)nc(N2CCOCC2)n1` [Example 65, (2S,4R)-1-(4-(3-Cyclopropyl-1H-pyrazol-5-ylamino)-6-morpholino-1,3,5-triazin-2-yl)-4-fluoro-N-(pyrazin-2-yl)pyrrolidine-2-carboxamide], for which the “% TGI (3.13 mpk)” value turned out to be 80%.

`CO[C@H]1C[C@@H](C(=O)Nc2cnccn2)N(c2nc(Nc3cc(C4CC4)n[nH]3)nc(N3CCOCC3)n2)C1` [Example 18, (2S,4S)-1-(4-(3-Cyclopropyl-1H-pyrazol-5-ylamino)-6-morpholino-1,3,5-triazin-2-yl)-4-methoxy-N-(pyrazin-2-yl)pyrrolidine-2-carboxamide]: the “% TGI (3.13 mpk)” value is recorded as 96%.

For `COCCN1CCN(c2nc(Nc3cc(C4CC4)n[nH]3)nc(N3C[C@H](F)C[C@H]3C(=O)Nc3ncns3)n2)CC1` [Example 84, (2S,4R)-1-(4-(3-Cyclopropyl-1H-pyrazol-5-ylamino)-6-(4-(2-methoxyethyl)piperazin-1-yl)-1,3,5-triazin-2-yl)-4-fluoro-N-(1,2,4-thiadiazol-5-yl)pyrrolidine-2-carboxamide], where the note is “50 mpk”, the “% TGI (50 mpk)” value is on record as 25%.

As for `CN1CCN(c2nc(Nc3cc(C4CC4)n[nH]3)nc(N3C[C@H](F)C[C@H]3C(=O)Nc3cnccn3)n2)CC1` [Example 68, (2S,4R)-1-(4-(3-Cyclopropyl-1H-pyrazol-5-ylamino)-6-(4-methylpiperazin-1-yl)-1,3,5-triazin-2-yl)-4-fluoro-N-(pyrazin-2-yl)pyrrolidine-2-carboxamide], for the setting “6.25 mpk”, the “% TGI (6.25 mpk)” value stood at 7%.
